From patent publication US12150995B2, “IRAK degraders and uses thereof” (Kymera Therapeutics, Inc., priority 2020, dated 2024)

biological target: T1, IRAK4 (Homo sapiens, UniProt Q9NWZ3); assay: IRAK4 MSD Degradation in OCI-LY10; assay type: cell-based; conditions: OCI-LY10 cells, Meso Scale Discovery, incubated 4 to 24 hours
T1 construct: endogenous in cells; host or cells: OCI-LY10
T1 sequence (Q9NWZ3 1-460): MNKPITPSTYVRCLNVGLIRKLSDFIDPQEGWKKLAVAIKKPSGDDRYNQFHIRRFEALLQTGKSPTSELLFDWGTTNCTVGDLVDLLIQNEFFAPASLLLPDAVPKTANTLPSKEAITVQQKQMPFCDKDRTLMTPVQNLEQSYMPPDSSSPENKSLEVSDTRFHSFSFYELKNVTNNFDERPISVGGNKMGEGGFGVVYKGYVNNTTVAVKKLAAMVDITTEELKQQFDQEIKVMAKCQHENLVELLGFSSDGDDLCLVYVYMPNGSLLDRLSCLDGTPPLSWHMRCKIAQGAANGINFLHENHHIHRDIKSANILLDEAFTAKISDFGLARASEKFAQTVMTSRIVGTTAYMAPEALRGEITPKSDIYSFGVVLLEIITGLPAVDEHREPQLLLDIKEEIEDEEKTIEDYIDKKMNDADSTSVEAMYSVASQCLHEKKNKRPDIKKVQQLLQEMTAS
In short: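 IRAK4 degradation was quantified by Meso Scale electrochemiluminescence (anti-IRAK4 capture and detection antibodies) in lysates of treated OCI-LY10 cells. Compounds were dosed at 8 concentrations (1:3 dilutions, top 1 to 10 μM) for 4 to 24 h; DC50 derived by three-parameter logistic fitting.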

Compound	DC50
CC(C)Nc1cc(-n2ccc3cc(C(F)(F)F)cnc32)ncc1C(=O)N[C@H]1CC[C@H](CN2CCN(c3cccc4c3n(C)c(=O)n4C3CCC(=O)NC3=O)CC2)CC1 (some centres unmarked) [I-369]	0.1 to 0.2 µM
CC(C)Nc1cc(-n2ccc3cc(C#N)cnc32)ncc1C(=O)N[C@H]1CC[C@H](CN2CCN(c3cccc4c(N5CCC(=O)NC5=O)cncc34)CC2)CC1 [I-372]	< 0.01 µM
CC(C)Nc1cc(-c2ccc3cc(C#N)cnn23)ncc1C(=O)N[C@H]1CC[C@H](CN2CCN(c3cccc4c(N5CCC(=O)NC5=O)cncc34)CC2)CC1 [I-373]	0.01 to 0.05 µM
CCc1cc2nn([C@H]3CC[C@H](CN4CCN(c5cccc6c(N7CCC(=O)NC7=O)cncc56)CC4)CC3)cc2cc1NC(=O)c1cccc(C(F)(F)F)n1 [I-377]	< 0.01 µM
CCc1cc2nn([C@H]3CC[C@H](CN4CCN(c5cccc6c5n(C)c(=O)n6C5CCC(=O)NC5=O)CC4)CC3)cc2cc1NC(=O)c1cccc(C(F)(F)F)n1 (some centres unmarked) [I-378]	< 0.01 µM
COc1cc2nn([C@H]3CC[C@H](CN4CCN(c5cccc6c(N7CCC(=O)NC7=O)ncnc56)CC4)CC3)cc2cc1NC(=O)c1cccc(C(F)(F)F)n1 [I-380]	0.01 to 0.05 µM
COc1cc2nn([C@H]3CC[C@H](CN4CCN(c5cccc6c(N7CCC(=O)NC7=O)ccnc56)CC4)CC3)cc2cc1NC(=O)c1cccc(C(F)(F)F)n1 [I-382]	< 0.01 µM
COc1cc2nn([C@H]3CC[C@H](CN4CCC(O[C@H]5C[C@H](c6cccc7c6n(C)c(=O)n7C6CCC(=O)NC6=O)C5)CC4)CC3)cc2cc1NC(=O)c1cccc(C(F)(F)F)n1 (some centres unmarked) [I-386]	0.01 to 0.05 µM
Cn1c(=O)n(C2CCC(=O)NC2=O)c2cccc(N3CCN(C[C@H]4CC[C@H](n5cc6cc(NC(=O)c7cccc(C(F)(F)F)n7)c(N7CCC7)cc6n5)CC4)CC3)c21 (some centres unmarked) [I-387]	0.01 to 0.05 µM

Further lines, results first:

DC50	Compound
0.01 to 0.05 µM	O=C1CCN(c2cncc3c(C4CCN(C[C@H]5CC[C@H](n6cc7cc(NC(=O)c8cccc(C(F)(F)F)n8)c(Cl)cc7n6)CC5)CC4)cccc23)C(=O)N1 [I-370]
< 0.01 µM	O=C1CCN(c2cncc3c(N4CCN(C[C@H]5CC[C@H](n6cc7cc(NC(=O)c8cccc(C(F)(F)F)n8)c(C(F)F)cc7n6)CC5)CC4)cccc23)C(=O)N1 [I-371]
> 0.2 µM	CC(C)Nc1cc(-n2ccc3cc(C(F)(F)F)cnc32)ncc1C(=O)N[C@H]1CC[C@H](CN2CCN(c3ccc4c(c3)n(C)c(=O)n4C3CCC(=O)NC3=O)CC2)CC1 (some centres unmarked) [I-374]
0.01 to 0.05 µM	O=C1CCN(c2cncc3cc(N4CCN(C[C@H]5CC[C@H](n6cc7cc(NC(=O)c8cccc(C(F)(F)F)n8)c(C(F)F)cc7n6)CC5)CC4)ccc23)C(=O)N1 [I-375]
0.01 to 0.05 µM	COc1cc2nn([C@H]3CC[C@H](CN4CCN(c5ccc6c(N7CCC(=O)NC7=O)cncc6c5OC)CC4)CC3)cc2cc1NC(=O)c1cccc(C(F)(F)F)n1 [I-376]
< 0.01 µM	Cn1c(=O)n(C2CCC(=O)NC2=O)c2cccc(N3CCN(C[C@H]4CC[C@H](n5cc6cc(NC(=O)c7cccc(C(F)(F)F)n7)c(N7C[C@@H]8C[C@H]7CO8)cc6n5)CC4)CC3)c21 (some centres unmarked) [I-383]
< 0.01 µM	Cn1c(=O)n(C2CCC(=O)NC2=O)c2cccc(N3CCN(C[C@H]4CC[C@H](n5cc6cc(NC(=O)c7cccc(C(F)(F)F)n7)c(N7C[C@H]8C[C@@H]7CO8)cc6n5)CC4)CC3)c21 (some centres unmarked) [I-384]
0.01 to 0.05 µM	COc1cc2nn([C@H]3CC[C@H](CN4CCC(O[C@H]5C[C@@H](c6cccc7c6n(C)c(=O)n7C6CCC(=O)NC6=O)C5)CC4)CC3)cc2cc1NC(=O)c1cccc(C(F)(F)F)n1 (some centres unmarked) [I-385]
0.01 to 0.05 µM	CN(C)c1cc2nn([C@H]3CC[C@H](CN4CCN(c5cccc6c5n(C)c(=O)n6C5CCC(=O)NC5=O)CC4)CC3)cc2cc1NC(=O)c1cccc(C(F)(F)F)n1 (some centres unmarked) [I-388]
0.01 to 0.05 µM	Cc1cc2nn([C@H]3CC[C@H](CN4C[C@H]5C[C@@H]4CN5c4cccc5c4n(C)c(=O)n5C4CCC(=O)NC4=O)CC3)cc2cc1NC(=O)c1cccc(C(F)(F)F)n1 (some centres unmarked) [I-389]
0.01 to 0.05 µM	COc1ccc2c(c1N1CCN(C[C@H]3CC[C@H](NC(=O)c4cnc(-n5ccc6cc(C#N)cnc65)cc4NC(C)C)CC3)CC1)n(C)c(=O)n2C1CCC(=O)NC1=O (some centres unmarked) [I-391]
